# B1: PIP: hormonally regulated protein, a 17-kDa glycoprotein (protein, UniProt P12273 29-146, looked up)
# Prolactin-inducible protein: QDNTRKIIIKNFDIPKSVRPNDEVTAVLAVQTELKECMVVKTYLISSIPLQGAFNYKYTACLCDDNPKTFYWDFYTNRTVQIAAVVDVIRELGICPDDAAVIPIKNNRFYTIEILKVE
# Assays:
# Assay type in all cases: cell-based, human
# HCFs = experiment: LH/FSH ratio in 3D constructs after DHEA, Estrone, Estriol stimulation (Western blot); settings: HCFs (cells from Healthy individuals), 4 weeks, FIGS. 9A to 9C
# Description: (§1) In FIGS. 9A to 9C, healthy corneas were obtained from the National Disease Research Interchange (NDRI). KC corneas were obtained from individuals immediately following corneal transplantation. Inclusion/exclusion criteria for healthy controls required absence of ophthalmic disease, diabetes, or infectious conditions. Tissue from KC patients who had previously undergone collagen crosslinking was excluded. Corneal stromal cells were isolated from healthy (HCFs) and KC (HKCs) corneas. Both HCFs and HKCs were isolated as previously described. Briefly, using a surgical scalpel, the corneal epithelium and endothelium were removed. The corneal stroma was then washed in sterile PBS, cut into small pieces (approximately 2×2 mm), and placed into flasks; the cells were then allowed to adhere. Explants were grown for 2-4 weeks at 37° C./5% CO2/95% relative humidity, using Eagle's Minimum Essential Media (EMEM) supplemented with 10% fetal bovine serum (Atlanta Biologicals, Flowery Branch, GA, USA), and antibiotic/antimycotic (Anti/Anti, Life Technologies, Grand Island, NY, USA). Once confluent, cells were isolated following trypsinization, subcultured, or frozen using standard cryoprotective protocols. Three-dimensional constructs: —HCFs and HKCs were plated at a density of 1×10^6 cells/well on six-well size polycarbonate membrane inserts with 0.4-μm pores (VWR, Radnor, PA, USA). The cells were cultured in EMEM containing 10% FBS, 1% antibiotic, and stimulated with a stable Vitamin C derivative (0.5 mM 2-O-α-D-glucopyranosyl-L-ascorbic acid: Sigma-Aldrich, St. Louis, MO, USA). Cultures were grown for a total of 4 weeks and fresh media was supplied every other day for the duration of the study. Protein extraction and further analysis occurred at the 4-week timepoint.
# (§2) All cultures were collected and washed twice with PBS, and total protein was isolated using 1× radioimmunoprecipitation assay (RIPA) buffer (50 mM Tris pH 8, 150 mM NaCl, 1% Triton X-100, and 0.1% SDS) containing a protease inhibitor cocktail (Sigma-Aldrich, St. Louis, MO, USA). Cell lysates were centrifuged at 4° C., and the supernatant was isolated and subjected to a Pierce BCA Protein assay (ThermoScientific, Rockford, IL, USA) for protein concentration quantification. Novex 4-20% Tris-glycine mini WedgeWell format 12-well gels (FisherScientific, Hampton, NH, USA) were electrophoresed at 130 V for 1.5 h, and transferred onto a nitrocellulose membrane at 100 V for 1 hour on ice. B lots were blocked in 5% dry milk (Great Value, Bentonville, AR, USA) for 1 h, at room temperature, with shaking. […] Results were analyzed by normalizing values to the expression of housekeeping antibody β-Actin (Abcam, Cambridge, MA, USA).
# HKCs = experiment: as above; settings: HKCs (cells from Keratoconus patients), 4 weeks, FIGS. 9A to 9C
# Description: as §1, §2
# Healthy cells (HCFs) = experiment: LH/FSH ratio after PIP treatment (Western blot); settings: PIP 50-500 ng/ml, 48 hours, in a concentration dependent manner, FIG. 12
# Protocol: (§3) In FIG. 12, HCFs and HKCs were seeded in 12-well plates at 5×10^5 cells/well in regular media. 24 hours later media was replaced for treatment media (regular media supplemented with the treatment). The treatments consisted on five different concentrations of PIP: 50 ng/ml, 100 ng/ml, 200 ng/ml, 350 ng/ml and 500 ng/ml at a number of four wells per treatment. After 48 hours treatment finished and all the wells were wash with PBS and proteins were extracted using 1 ml of RIPA buffer 1×. Bradford assay (Thermo scientific, IL, USA) was carried out to determine the protein concentration and normalize the samples. For western blot analysis samples were mixed with loading buffer and equal amounts of protein were loaded (25 μg per lane) on a 4-20% Tris-Glycine gel (Novex, Life technologies, Carlsbad, CA) and electrophoresed at 135-140V for 1.5 hour. Each sample was run single. T hereafter, the gel was transferred on to a nitrocellulose membrane (Novex, Nitrocellulose membrane, Life Technologies, Carlsbad, CA), at 100V for 1 hour on ice. Finally, the membranes were blocked in milk (5% milk in TBST; Thermo scientific, IL, USA) for 1 hour and incubated overnight in the rocker at 4° C. with the primary antibody at 1:250 dilution. […] GAPDH (rabbit polyclonal ab9485, Abcam, Cambridge, MA) was used as housekeeping for all the targets at a dilution of 1:1000. […]
# KC cells (HKCs) = experiment: LH/FSH ratio after PIP treatment (Western blot); settings: PIP 50-500 ng/ml, 48 hours, in a concentration dependent manner, FIG. 12
# Protocol: as §3
Molecule,LH/FSH ratio modulated in vitro (HCFs),LH/FSH ratio modulated in vitro (HKCs),LH/FSH ratio modulation (Healthy cells (HCFs)),LH/FSH ratio modulation (KC cells (HKCs))
C[C@]12CC[C@@H]3c4ccc(O)cc4CC[C@H]3[C@@H]1C[C@@H](O)[C@@H]2O [Estriol],moving towards a disease-phenotype,“recovering” towards a healthy phenotype,,
C[C@]12CC[C@H](O)CC1=CC[C@@H]1[C@@H]2CC[C@]2(C)C(=O)CC[C@@H]12 [DHEA],moving towards a disease-phenotype,“recovering” towards a healthy phenotype,,
B1,,,modulated,modulated
